What is called Kd is the free concentration of one partner at which half of the binding sites on the other are occupied at equilibrium, for simple one-to-one binding.

Test [1] has as its target T1, Rac1 (Homo sapiens, UniProt P63000).
T1 construct: His6 (N); made in house
The experiment in a line: Microscale thermophoresis (MST) binding. The following applies: no saturation at highest concentration tested, read-out: Kd, best estimate. The protocol: (§1) FIG. 14: IODVA1 targets Vav3 in vitro and in vivo. (A) Ba/F3 cells expressing empty vector Mieg3 or p190-BCR-ABL1 were treated with vehicle control or IODVA1 (IO1, 3 μM) for 30 min and incubated with GST-Rac and glutathione beads. Beads were washed and the protein complexes were separated on SDS-PAGE and immunoblotted for pVav3. Input Vav3 was used as control. (B) Binding affinity (Kd) between IODVA1 and Vav3 (green), LARG (brown), and RacGDP (blue). […] Error bars=SD; N=3. (C) Quantification of the average number of colonies made by bone marrow wild-type (black) and Vav3^−/− (lilac) p190-BCR-ABL1 leukemic cells treated with vehicle control or IODVA1 (IO1, 1 and 3 μM) (* p≤0.05; ** p≤0.01; *** p≤0.001; ns, not significant). (D) Representative histogram data of the cell cycle analysis of wild-type (black and grey bars) and Vav3^−/− (dark and light lilac) bone marrow cells expressing p190-BCR-ABL and treated with vehicle control or IODVA1 (IO1, 3 μM) for 20 h. (E) Quantification by densitometry of the pVav3 band from FIG. 14A. […]
(§2) To test this hypothesis, we measured its binding affinity (Kd) to recombinant Vav3 and Rac1 using microscale thermophoresis (MST); the catalytic domain (DH/PH) of the RhoGEF LARG served as negative control. […] Second, like Vav3, LARG contains a DH/PH domain responsible for the exchange activity such that any non-specific binding to this domain should be detected. […]

The test system of test [2] is p190- and p210-BCR-ABL1 expressing Ba/F3 cells. The experiment in a line: Cell survival, trypan blue exclusion. It counts as cell-based, murine. As to conditions: Mus musculus, BaF3; read-out: half maximal effective concentration (EC50), survival. The protocol:
(B) IODVA1-dependent survival curves of empty vector (red circles) or p190-BCR-ABL1 (black circles) expressing Ba/F3 cells and of Nalm-1 cells. […] (C) p190-BCR-ABL1 (grey line) or Mieg3 (black line) expressing Ba/F3 cells were allowed to grow for 1 day, treated with IODVA1 (IO1, 1 μM) for 1 day, and washed (black arrow). Cells were counted for 7 days using trypan blue exclusion. (D) Ba/F3 cells stably expressing p190-BCR-ABL1 were subjected to colony formation assay in soft agar (0.25% Noble Agar in RPMI/FBS/IL-3) in the presence of DMSO or IODVA1 (1 or 10 μM). Colonies were allowed to form for 10 days then stained with iodonitrotetrazolium (1 mg/mL). […] (E) Leukemic burden (%) of treated mice before treatment (left upper panel) and at the indicated treatment time was analyzed by flow cytometry of bone marrow aspirates as population containing B220^+/CD43^+ pro-B cells. […]
IODVA1 specifically targets BCR-ABL B-ALL cells in vitro. […] We then assessed survival of p190-BCR-ABL-transformed CD34^+ cells in the presence of IODVA1 by trypan blue exclusion. […]
MDA-MB-231 cells were maintained in IMEM (Invitrogen) supplemented with 10% FBS, 1% penicillin/streptomycin, and 1% amphotericin B. B a/F3 cells were cultured in RPMI (GIBCO) supplemented with 10% FBS and IL-3 (10 ng/ml). […] Cell viability was assessed by trypan blue exclusion assay as previously described. […]

For test [3], the target named is T2, LARG (DH/PH) (Homo sapiens, UniProt Q9NZN5).
T2 construct: the catalytic domain (DH/PH) of the RhoGEF LARG served as negative control; MBP; made in house
T2 sequence (Q9NZN5 765-1138 limits assumed): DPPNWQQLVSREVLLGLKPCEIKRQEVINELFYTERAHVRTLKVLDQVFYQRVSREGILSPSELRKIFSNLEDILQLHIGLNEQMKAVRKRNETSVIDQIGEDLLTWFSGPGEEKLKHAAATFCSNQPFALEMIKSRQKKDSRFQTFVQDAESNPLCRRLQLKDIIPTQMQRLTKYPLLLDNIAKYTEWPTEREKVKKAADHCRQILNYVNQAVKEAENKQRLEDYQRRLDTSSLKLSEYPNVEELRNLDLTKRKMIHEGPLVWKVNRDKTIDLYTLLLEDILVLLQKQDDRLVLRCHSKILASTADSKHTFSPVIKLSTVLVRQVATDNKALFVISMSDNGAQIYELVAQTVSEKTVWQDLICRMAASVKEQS
The test can be described thus: Microscale thermophoresis (MST) binding. As to conditions: no saturation at highest concentration tested, read-out: Kd, best estimate. The protocol:
as §1, §2

For test [4], the system named is MDA-MB-231 cells expressing scrambled shRNA. The test can be described thus: Viability and proliferation, trypan blue exclusion. The format is cell-based, human. The following applies: 0.1-1 μM.

Molecules are shown by their SMILES.

Regarding `OC1(c2ccccn2)N=C(Nc2nc3ccccc3[nH]2)N=C1c1ccccn1` (stereo not shown) [IODVA1, (Z)-2-((1H-benzo[d]imidazol-2-yl)imino)-4,5-di(pyridin-2-yl)-2,5-dihydro-1H-imidazol-5-ol], the Kd in test [1] was roughly 35.5 µM; in test [3] it was roughly 7.7 µM. Besides, the EC50 in test [2] was determined as 0.38 µM. In test [4], the viability and proliferation entry is given as “reduces, in a dose-dependent manner”.

The values above are taken from patent publication US11564913B2, “Compositions and methods for treating cancer” (Children's Hospital Medical Center, priority 2019, dated 2023).
